≈ marks a conversion by molar mass, not a printed value. Where “and” joins values, the source holds several entries; their conditions need not be identical. Equal entries are not always repeated. Where two headings read alike, the source gives them in different places.
Key:
[1] = test system: Salmonella typhimurium TA1537; assay: Ames test (plate incorporation), TA1537
Total polyphenol content = conditions: 10 mg/mL antrocin
Experimental: We added 40–50 μL of sample to a 96-well plate and made it up to 100 μL with ddH2O. For each sample, a parallel sample was prepared as a sample background control. Vanillic acid was used as a positive control. We added 50 μL of 50 mM vanillic acid solution per well to the desired wells and made it up to 100 μL with ddH2O. We adjusted the volume of all standard curves to 100 µL with ddH2O. We then added 20 μL PC (Phenolic Compounds) Probe to the standard curve and sample reaction wells, and 20 μL PC Assay Buffer to the sample background wells. For standard curve preparation, we added 0, 2, 4, 6, 8, and 10 μL of 1 mM catechin standards to clear 96-well plates to generate 0, 2, 4, 6, 8, and 10 nmol/well catechin standard, respectively. We adjusted the volume of all standard curves to 100 µL with ddH2O. […] The absorbance was measured at 480 nm.
We subtracted the 0 nmol standard OD480 value from all standard curve readings and drew a catechin standard curve. If the sample background well reads were significant, the sample background control reads were subtracted from their paired sample reads. […]
B stands for the amount of diazo chromophore, calculated from the standard curve (nmol of catechin); D stands for the sample dilution factor (for undiluted samples, D = 1); V stands for the volume of sample added to the well (in µL).

[2] = MTT assay for cytotoxicity; assay type: cell-based, Chinese hamster; conditions: Chinese hamster, CHO-K1 cells, read-out: cell viabilities
CHO-K1 cells = assay: MTT assay for cytotoxicity; assay type: cell-based, Chinese hamster; conditions: Cricetulus griseus, MTT, 24 h, read-out: half maximal inhibitory concentration (IC50)
ICR male mice = assay: In vivo mammalian erythrocyte micronucleus test
[3] = test system: Salmonella typhimurium TA100
[4] = test system: five different strains of Salmonella typhimurium; assay: Bacterial toxicity test prior to the Ames test; conditions: all tester strains
[5] = test system: lung cancer tumor xenografts; parameters: method as in PMID 23880305; conditions: 5 mg/kg/day intraperitoneal; cited from earlier work

C=C1CC[C@H]2C(C)(C)CCC[C@@]23C(=O)OC[C@@H]13 [Antrocin, (-)-Antrocin]
Number of Revertant ([1]; TA1537, with S9, 0.003125 mg/plate): 11.7 ± 1.9 Colony/Plate | Number of Revertant ([1]; TA1537, with S9, 0.00625 mg/plate): 6.7 ± 2.4 Colony/Plate | Number of Revertant ([1]; TA1537, with S9, 0.025 mg/plate): 10.3 ± 2.1 Colony/Plate | Number of Revertant ([1]; TA1537, with S9, 0.05 mg/plate): 6.0 ± 1.4 Colony/Plate | Number of Revertant ([1]; TA1537, without S9, 0.003125 mg/plate): 14.3 ± 2.6 Colony/Plate | Number of Revertant ([1]; TA1537, without S9, 0.00625 mg/plate): 8.7 ± 0.5 Colony/Plate | Number of Revertant ([1]; TA1537, without S9, 0.025 mg/plate): 13.0 ± 2.2 Colony/Plate | Number of Revertant ([1]; TA1537, without S9, 0.05 mg/plate): 9.7 ± 0.9 Colony/Plate | Total Phenolic Contents (mM Catechin Equivalents) (Total polyphenol content): 0.016 ± 0.000 mM Catechin equivalents and 0.016 ± 0.000 ^1 mM Catechin equivalents | viability at 24 h, 31.25 μg/mL ([2]; 31.25 μg/mL): 81.3 ± 5% | viability at 24 h, 62.5 μg/mL ([2]; 62.5 μg/mL): 62.9 ± 8.9% | viability at 24 h, 250 μg/mL ([2]; 250 μg/mL): 24.8 ± 1.9% | viability at 24 h, 500 μg/mL ([2]; 500 μg/mL): 22.1 ± 1.5% | IC50 (CHO-K1 cells): ~123 µg/mL (≈ 524 µM) | Mn-RETs/1000RETs (‰) (ICR male mice; 48 h, 100 mg/kg oral gavage): 2.2 ± 0.9 ‰ | RETs/1000RBCs (‰) (ICR male mice; 48 h, 100 mg/kg oral gavage): 20.4 ± 2.4 ‰ | frequencies of micronuclei (ICR male mice; 48 h, 250 mg/kg): 18.8 ± 1.9 ‰ | Mn-RETs/1000RETs (‰) (ICR male mice; 48 h, 250 mg/kg oral gavage): 1.5 ± 0.2 ‰ | RETs/1000RBCs (‰) (ICR male mice; 48 h, 250 mg/kg oral gavage): 18.8 ± 1.9 ‰ | frequencies of micronuclei (ICR male mice; 48 h, […]): 20.8 ± 2.5 ‰ | frequencies of micronuclei (ICR male mice; 72 h, 100 mg/kg): 31.0 ± 6.1 ‰ | Mn-RETs/1000RETs (‰) (ICR male mice; 72 h, 100 mg/kg oral gavage): 3.0 ± 1.0 ‰ | RETs/1000RBCs (‰) (ICR male mice; 72 h, 100 mg/kg oral gavage): 31.0 ± 6.1 ‰ | frequencies of micronuclei (ICR male mice; 72 h, 250 mg/kg): 26.5 ± 4.6 ‰ | Mn-RETs/1000RETs (‰) (ICR male mice; 72 h, 250 mg/kg oral gavage): 2.2 ± 0.5 ‰ | RETs/1000RBCs (‰) (ICR male mice; 72 h, 250 mg/kg oral gavage): 26.5 ± 4.6 ‰ | frequencies of micronuclei (ICR male mice; 72 h, […]): 28.9 ± 5.0 ‰ | frequency of micronuclei versus control (ICR male mice; antrocin-treated groups after 48 or 72 h): no significant changes | Number of Revertant ([3]; TA100, with S9, 0.003125 mg/plate): 194.3 ± 5.4 Colony/Plate | Number of Revertant ([3]; TA100, with S9, 0.00625 mg/plate): 185.0 ± 6.5 Colony/Plate | Number of Revertant ([3]; TA100, with S9, 0.025 mg/plate): 197.0 ± 8.8 Colony/Plate | Number of Revertant ([3]; TA100, with S9, 0.05 mg/plate): 195.3 ± 2.9 Colony/Plate | Number of Revertant ([3]; TA100, without S9, 0.003125 mg/plate): 170.7 ± 1.2 Colony/Plate | Number of Revertant ([3]; TA100, without S9, 0.00625 mg/plate): 169.3 ± 8.2 Colony/Plate | Number of Revertant ([3]; TA100, without S9, 0.025 mg/plate): 181.7 ± 5.7 Colony/Plate | Number of Revertant ([3]; TA100, without S9, 0.05 mg/plate): 166.7 ± 4.5 Colony/Plate | bacterial mutagenicity ([3]; preliminary tests, TA100, 100 μg/plate): no bacterial mutagenicity | maximum non-toxic concentration [4]: 0.05 mg/plate | growth of lung cancer tumor xenografts [5]: significantly suppressed the growth

Reference: paper PMC10301922, “Anti-Oxidant, Anti-Mutagenic Activity and Safety Evaluation of Antrocin” (Toxics, 2023)
